According to patent US12570612B2, “Substituted nitrogen heterocyclic compound and anesthetic effect thereof” (priority 2019, dated 2026):

Legend:
Assay type in all cases: in vivo
Sprague-Dawley rats [1] = test: animal or person; conditions: rats; for ED50: Rattus norvegicus, LORR, up and down method, tail vein, class symbols, read-out: ED50
Source text: Evaluating indicator: The end point of anesthesia: the disappearance of forepaw righting reflex (lorr) was used as the end point of anesthesia; General anesthesia effect: the disappearance of forepaw righting reflex in rats lasting for 30 seconds is taken as the index of general anesthesia effect; Anesthesia recovery index: the recovery of rat forepaw righting reflex was used as the index of anesthesia recovery.

Sprague-Dawley rats [2] = test: Pharmacological effect and adverse reactions under the equivalent dose (2ED50), Group D compounds; conditions: for Righting reflex duration / Sedation duration / Onset time: 2ED50, tail vein, rats, n=8; for Adverse reaction: Convulsions / Adverse reaction: Cough, broken-winded / Adverse reaction: Euphoria / Adverse reaction: Four limbs rigidity / Adverse reaction: Red urine / Adverse reaction: Slower breathing, Tetany convulsion / Adverse reaction: Systemic stiffness, Convulsions, Opisthotonus / Adverse reaction: Tongue stretching / Adverse reaction: Tremor: equivalent dose (2 × ED50), number of rats of n = 8
Source text: Evaluation index: onset time: from the completion of drug injection to the disappearance of forepaw righting reflex in rats; Duration of anesthesia: the time from the disappearance of rat forepaw righting reflex to the recovery of rat forepaw righting reflex; Recovery time of anesthesia: the time from the […] to complete recovery;

Sprague-Dawley rats [3] = conditions: tail vein

Row | SMILES | ED50 (Sprague-Dawley rats [1]) [mg/kg] | Approximate therapeutic index (Sprague-Dawley rats [1]) | Righting reflex duration (Sprague-Dawley rats [2]) [min] | Sedation duration (Sprague-Dawley rats [2]) [min] | Onset time (Sprague-Dawley rats [2]; unit min) [min] | Adverse reaction: Convulsions (Sprague-Dawley rats [2]) | Adverse reaction: Cough, broken-winded (Sprague-Dawley rats [2]) | Adverse reaction: Euphoria (Sprague-Dawley rats [2]) | Adverse reaction: Four limbs rigidity (Sprague-Dawley rats [2]) | Adverse reaction: Red urine (Sprague-Dawley rats [2]) | Adverse reaction: Slower breathing, Tetany convulsion (Sprague-Dawley rats [2]) | Adverse reaction: Systemic stiffness, Convulsions, Opisthotonus (Sprague-Dawley rats [2]) | Adverse reaction: Tongue stretching (Sprague-Dawley rats [2]) | Adverse reaction: Tremor (Sprague-Dawley rats [2]) | Minimal lethal dose (Sprague-Dawley rats [3]) [mg/kg] | Onset time (Sprague-Dawley rats [2]; unit s) [min]
1 | C[C@H](c1ccccc1)n1cncc1C(=O)C(=O)OCC(C)(C)C [Compound D86] | 1 to 2 | >7.3 | 1.24 ± 0.12 | 7.88 ± 1.94 | <1 | 0 | 0 | 0 | 0 | 8 | 0 | 2 | 0 | 0 | >9.8 | –
2 | C=CCOC(OC)(OC)C(=O)c1ccnn1[C@H](C)c1ccccc1 [Compound D7] | 0.5 to 1 | >5.4 | 0.55 ± 0.59 | 8.52 ± 2.29 | <1 | 0 | 0 | 0 | 1 | 8 | 0 | 0 | 1 | 1 | >3.2 | –
3 | CCOC(OCC)C(=O)c1c(F)ncn1[C@H](C)c1ccccc1 [Compound D101] | 0.04 to 0.5 | >10.5 | 1.80 ± 0.58 | 7.20 ± 3.21 | – | 0 | 0 | 0 | 0 | 8 | 0 | 2 | 0 | 0 | >9.3 | <0.5
4 | COC(OC)(OC)C(=O)c1cnnn1[C@H](C)c1ccccc1 [Compound D42] | 0.04 to 0.5 | >4.2 | 1.38 ± 0.15 | 3.83 ± 0.74 | <1 | 6 | 0 | 0 | 0 | 8 | 0 | 0 | 1 | 1 | >1.8 | –
5 | COC(=O)C(=O)c1cncn1[C@H](C)c1ccccc1 [Compound D80] | > 6 | >2.9 | 1.58 ± 0.61 | 6.42 ± 1.68 | – | 0 | 0 | 0 | 4 | 8 | 0 | 0 | 0 | 0 | >12.2 | <0.5
6 | COC(OC)C(=O)c1cncn1[C@H](C)c1ccccc1 [Compound D87] | 1 to 2 | >6.8 | 4.34 ± 0.54 | 8.26 ± 2.74 | – | 0 | 0 | 0 | 0 | 8 | 0 | 5 | 0 | 0 | >13.2 | <0.5
7 | COC(=O)C(=O)c1ccnn1[C@H](C)c1ccccc1 [Compound D11] | > 6 | >4.6 | – | – | – | – | – | – | – | – | – | – | – | – | >30.2 | –
